Drawing on PMC10239507, “Development of allosteric and selective CDK2 inhibitors for contraception with negative cooperativity to cyclin binding” (Nature Communications, 2023), this text covers activity for one compound.

Holding throughout (assay): biochemical
Assay [1] addresses T1, 371 kinases (kinase named in each endpoint) (Homo sapiens, UniProt P51956).
T1 construct: purchased Reaction Biology
To be noted: NEK3.

The target of assay [2] is T2, 371 kinases (kinase named in each endpoint) (Homo sapiens, UniProt Q96NX5).
T2 construct: purchased Reaction Biology
As to conditions: CAMK1G.

The target of assay [3] is T3, 371 kinases (kinase named in each endpoint) (Homo sapiens, UniProt Q13627).
T3 construct: purchased Reaction Biology
As to conditions: DYRK1/DYRK1A.

Assay [4] addresses T4, 371 kinases (kinase named in each endpoint) (Homo sapiens, UniProt Q8N568).
T4 construct: purchased Reaction Biology
To be noted: DCAMKL2.

In assay [5] the target is T5, 371 kinases (kinase named in each endpoint) (Homo sapiens, UniProt P04626).
T5 construct: purchased Reaction Biology
As to conditions: ERBB2/HER2.

For assay [6], the target named is T6, 371 kinases (kinase named in each endpoint) (Homo sapiens, UniProt Q9H2X6).
T6 construct: purchased Reaction Biology
As to conditions: HIPK2.

For assay [7], the target named is T7, 371 kinases (kinase named in each endpoint) (Homo sapiens, UniProt Q9UK32).
T7 construct: purchased Reaction Biology
To be noted: RSK4.

T7 sequence (Q9UK32 whole entry): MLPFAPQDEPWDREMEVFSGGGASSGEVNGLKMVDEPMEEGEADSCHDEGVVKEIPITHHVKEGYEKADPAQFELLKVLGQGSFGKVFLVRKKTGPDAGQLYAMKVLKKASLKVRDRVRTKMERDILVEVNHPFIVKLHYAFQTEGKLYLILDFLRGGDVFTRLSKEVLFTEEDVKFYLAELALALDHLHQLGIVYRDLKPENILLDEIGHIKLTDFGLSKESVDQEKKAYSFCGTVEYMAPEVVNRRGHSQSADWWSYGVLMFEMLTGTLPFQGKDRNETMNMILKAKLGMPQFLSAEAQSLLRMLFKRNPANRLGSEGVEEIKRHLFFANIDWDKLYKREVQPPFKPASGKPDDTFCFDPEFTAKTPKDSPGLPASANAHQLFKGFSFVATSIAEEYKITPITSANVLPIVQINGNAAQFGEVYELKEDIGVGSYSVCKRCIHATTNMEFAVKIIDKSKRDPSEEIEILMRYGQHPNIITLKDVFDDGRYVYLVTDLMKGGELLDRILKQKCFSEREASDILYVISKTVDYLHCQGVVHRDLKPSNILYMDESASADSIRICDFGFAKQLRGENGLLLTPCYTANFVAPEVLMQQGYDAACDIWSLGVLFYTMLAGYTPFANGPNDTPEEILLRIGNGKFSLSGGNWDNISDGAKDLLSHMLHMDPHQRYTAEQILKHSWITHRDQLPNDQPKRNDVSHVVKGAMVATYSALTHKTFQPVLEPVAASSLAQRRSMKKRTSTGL
T2 sequence (Q96NX5 whole entry): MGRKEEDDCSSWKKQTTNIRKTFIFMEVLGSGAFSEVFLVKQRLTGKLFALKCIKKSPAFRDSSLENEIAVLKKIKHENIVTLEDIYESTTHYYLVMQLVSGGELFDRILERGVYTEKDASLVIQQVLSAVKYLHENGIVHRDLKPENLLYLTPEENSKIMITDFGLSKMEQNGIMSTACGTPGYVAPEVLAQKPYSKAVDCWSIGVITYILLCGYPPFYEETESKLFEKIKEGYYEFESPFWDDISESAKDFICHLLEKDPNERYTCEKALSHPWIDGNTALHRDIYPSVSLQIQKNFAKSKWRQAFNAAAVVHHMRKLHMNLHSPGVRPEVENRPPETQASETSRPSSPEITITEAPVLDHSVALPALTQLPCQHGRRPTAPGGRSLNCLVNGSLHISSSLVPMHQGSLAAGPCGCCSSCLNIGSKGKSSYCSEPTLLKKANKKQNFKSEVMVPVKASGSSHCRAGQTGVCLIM
T6 sequence (Q9H2X6 whole entry): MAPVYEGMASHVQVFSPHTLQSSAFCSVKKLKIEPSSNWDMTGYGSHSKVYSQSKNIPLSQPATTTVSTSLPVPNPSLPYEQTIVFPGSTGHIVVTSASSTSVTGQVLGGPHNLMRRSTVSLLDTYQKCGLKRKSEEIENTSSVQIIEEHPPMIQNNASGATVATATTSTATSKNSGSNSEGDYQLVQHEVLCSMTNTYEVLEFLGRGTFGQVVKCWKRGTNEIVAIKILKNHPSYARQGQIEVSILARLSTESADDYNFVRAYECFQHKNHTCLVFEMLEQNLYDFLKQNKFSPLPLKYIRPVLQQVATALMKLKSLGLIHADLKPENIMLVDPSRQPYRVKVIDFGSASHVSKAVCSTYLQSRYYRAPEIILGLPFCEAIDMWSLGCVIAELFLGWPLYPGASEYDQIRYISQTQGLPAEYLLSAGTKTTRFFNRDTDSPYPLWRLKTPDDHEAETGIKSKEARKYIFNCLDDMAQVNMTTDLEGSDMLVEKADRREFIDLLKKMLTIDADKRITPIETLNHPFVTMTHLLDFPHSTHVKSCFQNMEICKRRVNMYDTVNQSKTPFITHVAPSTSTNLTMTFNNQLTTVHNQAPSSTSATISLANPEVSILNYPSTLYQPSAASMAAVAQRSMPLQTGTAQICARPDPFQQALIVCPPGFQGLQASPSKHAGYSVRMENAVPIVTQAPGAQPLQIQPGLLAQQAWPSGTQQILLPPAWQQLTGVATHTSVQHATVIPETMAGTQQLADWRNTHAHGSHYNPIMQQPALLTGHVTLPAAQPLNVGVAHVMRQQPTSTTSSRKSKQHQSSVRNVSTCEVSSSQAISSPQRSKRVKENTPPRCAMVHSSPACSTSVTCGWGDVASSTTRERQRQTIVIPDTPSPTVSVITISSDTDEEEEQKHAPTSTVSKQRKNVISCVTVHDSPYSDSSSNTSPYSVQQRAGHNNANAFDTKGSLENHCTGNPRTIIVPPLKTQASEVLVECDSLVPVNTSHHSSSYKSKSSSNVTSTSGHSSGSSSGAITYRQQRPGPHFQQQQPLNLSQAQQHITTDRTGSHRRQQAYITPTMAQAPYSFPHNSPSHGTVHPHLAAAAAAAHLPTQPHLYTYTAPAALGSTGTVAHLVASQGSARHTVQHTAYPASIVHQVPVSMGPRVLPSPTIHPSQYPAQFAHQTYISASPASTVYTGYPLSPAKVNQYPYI
T4 sequence (Q8N568 whole entry): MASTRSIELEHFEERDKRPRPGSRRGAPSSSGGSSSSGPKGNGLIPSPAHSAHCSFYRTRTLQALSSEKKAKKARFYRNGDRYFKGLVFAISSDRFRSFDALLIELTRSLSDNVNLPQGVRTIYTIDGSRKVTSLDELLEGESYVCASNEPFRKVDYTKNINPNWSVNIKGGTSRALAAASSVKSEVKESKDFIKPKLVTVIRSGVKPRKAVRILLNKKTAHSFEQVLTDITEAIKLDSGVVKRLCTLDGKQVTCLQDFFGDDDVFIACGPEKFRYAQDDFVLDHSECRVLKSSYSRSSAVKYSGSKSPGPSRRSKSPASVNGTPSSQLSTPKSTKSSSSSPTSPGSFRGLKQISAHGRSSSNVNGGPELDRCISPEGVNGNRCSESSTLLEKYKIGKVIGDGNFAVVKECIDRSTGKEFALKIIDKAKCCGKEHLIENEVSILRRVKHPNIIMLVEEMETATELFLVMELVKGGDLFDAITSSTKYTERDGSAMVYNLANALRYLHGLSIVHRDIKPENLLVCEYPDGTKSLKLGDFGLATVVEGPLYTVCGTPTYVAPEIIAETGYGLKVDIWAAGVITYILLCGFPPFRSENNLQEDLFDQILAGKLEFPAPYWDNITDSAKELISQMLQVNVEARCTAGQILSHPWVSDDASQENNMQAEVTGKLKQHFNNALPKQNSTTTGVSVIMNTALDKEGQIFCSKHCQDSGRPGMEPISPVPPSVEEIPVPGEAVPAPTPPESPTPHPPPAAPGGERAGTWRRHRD
T5 sequence (P04626 23-1255): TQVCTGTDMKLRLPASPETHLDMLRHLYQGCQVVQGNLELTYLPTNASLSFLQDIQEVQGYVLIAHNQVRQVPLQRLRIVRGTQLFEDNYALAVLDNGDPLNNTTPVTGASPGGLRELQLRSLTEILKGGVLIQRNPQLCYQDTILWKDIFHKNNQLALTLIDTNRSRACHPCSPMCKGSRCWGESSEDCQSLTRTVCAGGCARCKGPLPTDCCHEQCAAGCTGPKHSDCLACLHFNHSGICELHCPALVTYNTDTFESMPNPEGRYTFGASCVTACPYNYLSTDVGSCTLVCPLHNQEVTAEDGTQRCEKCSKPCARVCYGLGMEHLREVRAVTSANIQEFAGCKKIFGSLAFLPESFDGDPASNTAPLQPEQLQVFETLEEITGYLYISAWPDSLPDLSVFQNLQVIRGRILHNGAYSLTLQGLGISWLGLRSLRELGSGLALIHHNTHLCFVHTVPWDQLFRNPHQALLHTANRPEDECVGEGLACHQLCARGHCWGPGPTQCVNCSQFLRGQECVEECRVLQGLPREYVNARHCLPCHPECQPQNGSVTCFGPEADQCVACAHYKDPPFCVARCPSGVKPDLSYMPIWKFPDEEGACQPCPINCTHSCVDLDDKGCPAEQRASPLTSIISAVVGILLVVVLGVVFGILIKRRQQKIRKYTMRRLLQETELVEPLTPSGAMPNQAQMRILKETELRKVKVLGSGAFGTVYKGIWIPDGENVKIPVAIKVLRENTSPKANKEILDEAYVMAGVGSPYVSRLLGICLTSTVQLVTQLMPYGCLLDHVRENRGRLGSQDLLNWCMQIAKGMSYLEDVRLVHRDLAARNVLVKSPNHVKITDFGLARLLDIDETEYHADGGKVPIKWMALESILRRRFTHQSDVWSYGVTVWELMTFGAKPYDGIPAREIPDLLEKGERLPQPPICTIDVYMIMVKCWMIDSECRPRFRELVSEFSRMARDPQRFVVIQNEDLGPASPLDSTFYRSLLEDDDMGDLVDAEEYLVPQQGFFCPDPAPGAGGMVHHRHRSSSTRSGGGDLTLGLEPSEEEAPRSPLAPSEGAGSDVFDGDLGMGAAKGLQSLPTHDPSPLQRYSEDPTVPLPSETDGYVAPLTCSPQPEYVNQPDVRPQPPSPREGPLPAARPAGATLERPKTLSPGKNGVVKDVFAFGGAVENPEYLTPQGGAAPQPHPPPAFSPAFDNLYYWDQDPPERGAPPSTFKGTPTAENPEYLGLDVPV
T1 sequence (P51956 whole entry): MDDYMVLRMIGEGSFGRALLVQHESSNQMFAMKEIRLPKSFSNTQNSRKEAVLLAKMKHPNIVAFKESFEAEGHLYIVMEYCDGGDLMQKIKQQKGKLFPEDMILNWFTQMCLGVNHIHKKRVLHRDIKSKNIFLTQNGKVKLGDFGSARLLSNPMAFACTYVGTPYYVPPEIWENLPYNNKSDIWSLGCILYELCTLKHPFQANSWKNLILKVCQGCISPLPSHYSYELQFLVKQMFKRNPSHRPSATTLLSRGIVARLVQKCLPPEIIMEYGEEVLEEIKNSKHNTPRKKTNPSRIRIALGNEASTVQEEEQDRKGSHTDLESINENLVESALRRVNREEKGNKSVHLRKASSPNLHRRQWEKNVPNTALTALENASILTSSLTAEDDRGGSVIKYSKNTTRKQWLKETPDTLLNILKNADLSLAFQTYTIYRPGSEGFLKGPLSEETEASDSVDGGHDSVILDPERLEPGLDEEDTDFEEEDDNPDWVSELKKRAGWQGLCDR

For the compound `O=C(O)c1cc(C(F)(F)F)ccc1NCCc1c[nH]c2cc(Br)ccc12` [Compound 5, 2-((2-(6-Bromo-1H-indol-3-yl)ethyl)amino)−5-(trifluoromethyl)benzoic Acid], the activity at 10 µM in assay [1] turned out to be 93.3 ± 0.4%; in assay [2] it was 40.8 ± 2.3%; in assay [3], 80 ± 5.9%; in assay [4], 101.3 ± 0.6%; in assay [5], 78 ± 0.2%; in assay [6], 79.9 ± 0.7%. Moreover, in assay [7], the activity at 10 µM is 91 ± 0.4%.
